The source of these data is US10239882B2, “Substituted 5-methyl-[1,2,4]triazolo[1,5-a]pyrimidin-2-amine compounds as PDE2 inhibitors” (DART NEUROSCIENCE (CAYMAN) LTD., priority 2014, dated 2019).

The structures appear in SMILES notation. Where only a bound is given, the exact number is not on record here.

Chain of FLAG-tagged PDE2A1 (amino acids 2-941) (O00408 2-941): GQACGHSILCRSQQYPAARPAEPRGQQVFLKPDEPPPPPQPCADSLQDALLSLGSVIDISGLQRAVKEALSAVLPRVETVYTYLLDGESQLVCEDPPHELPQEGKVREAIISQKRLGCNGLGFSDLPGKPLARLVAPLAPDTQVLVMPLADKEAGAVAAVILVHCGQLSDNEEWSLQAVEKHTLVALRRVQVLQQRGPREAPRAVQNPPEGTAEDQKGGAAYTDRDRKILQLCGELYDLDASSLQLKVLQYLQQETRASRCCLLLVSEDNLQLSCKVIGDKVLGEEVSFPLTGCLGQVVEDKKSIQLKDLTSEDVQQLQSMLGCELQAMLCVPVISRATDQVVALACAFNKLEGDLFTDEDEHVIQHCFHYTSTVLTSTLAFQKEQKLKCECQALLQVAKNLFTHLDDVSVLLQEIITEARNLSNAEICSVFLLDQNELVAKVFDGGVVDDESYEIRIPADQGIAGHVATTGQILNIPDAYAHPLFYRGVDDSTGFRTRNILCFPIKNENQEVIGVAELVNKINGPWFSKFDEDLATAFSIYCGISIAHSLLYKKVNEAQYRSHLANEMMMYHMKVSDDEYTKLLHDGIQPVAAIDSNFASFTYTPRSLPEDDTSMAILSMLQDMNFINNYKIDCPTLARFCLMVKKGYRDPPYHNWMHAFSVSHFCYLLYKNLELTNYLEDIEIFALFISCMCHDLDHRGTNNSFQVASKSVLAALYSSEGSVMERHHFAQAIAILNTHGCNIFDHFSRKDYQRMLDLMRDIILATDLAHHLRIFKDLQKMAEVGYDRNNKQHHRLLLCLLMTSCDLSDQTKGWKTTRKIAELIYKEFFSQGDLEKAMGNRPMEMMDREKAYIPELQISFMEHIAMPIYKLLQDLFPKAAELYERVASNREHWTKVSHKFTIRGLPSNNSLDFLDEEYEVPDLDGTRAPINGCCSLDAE

In one assay the target is FLAG-tagged PDE2A1 (amino acids 2-941) (Homo sapiens (Human), UniProt O00408). The assay can be described thus: IMAP TR-FRET PDE2A enzymatic assay. The note with it: 200 nM FAM-cAMP substrate, 11-point half-log dose-response. The class given is biochemical. An excerpt:
An IMAP TR-FRET-based phosphodiesterase assay was developed using the PDE2A isoform. IMAP technology is based on high-affinity binding of phosphate by immobilized metal (MIII) coordination complexes on nanoparticles. The IMAP “binding reagent” recognizes phosphate groups on AMP or GMP generated from cAMP or cGMP in a PDE reaction. Cyclic nucleotides that carry a phosphodiester bond and not a free phosphate are not recognized by the binding reagent. The time resolved fluorescence resonance energy transfer (TR-FRET) is afforded by a Terbium (Tb)-Donor pre-bound to the nanoparticles. FRET occurs when the fluorescent-labeled AMP or GMP product of a PDE reaction binds and comes into close proximity to the Tb-Donor complex. Due to the long lifetime of Tb fluorescence, detection can be run in time-resolved mode to reduce or eliminate interference from auto-fluorescent compounds.
The IMAP TR-FRET PDE2A assay was performed in 1536-well white plates. A total of 250 pg per well of FLAG-tagged PDE2A1 (amino acids 2-941) was dispensed in 2.5 μL IMAP assay buffer consisting of 10 mM Tris pH 7.2, 10 mM MgCl2, 1 mM DTT, and 0.1% fatty acid free BSA. 30 nL of compound was then added from 1 mM stocks in DMSO using a Kalypsys Pintool. Plates were incubated for 5 min at room temperature before dispensing 1.5 μL of 533 nM FAM-cAMP substrate for a final concentration of 200 nM. Following a brief centrifugation, plates were incubated for 30 min at room temperature. The assay was terminated by adding 5 μL IMAP binding reagent Tb complex to each well which was prepared according to manufacturer's recommendations (Molecular Devices). Plates were incubated an additional 90 minutes at room temperature and read on a Viewlux plate reader. All compounds were solvated at a concentration of 10 mM in DMSO and tested in 11-point half-log dose-response. Curve fitting and IC50 values were determined using a standard four parameter fit.
For orientation: Time-resolved FRET reads energy transfer from a long-lived donor to a nearby acceptor.
For the compound `Cc1cc(C2CCOCC2)n2nc(NCc3cn(-c4ccccc4)nc3C)nc2n1` [Example 46, 5-Methyl-N-[(3-methyl-1-phenyl-1H-pyrazol-4-yl)methyl]-7-(oxan-4-yl)-[1,2,4]triazolo[1,5-a]pyrimidin-2-amine], the “PDE2 (PIC50)” value is over 7.

As for `COc1cc(F)c(CNc2nc3nc(C)cc(C4CCOCC4)n3n2)c(F)c1` [Example 50, N-[(2,6-Difluoro-4-methoxyphenyl)methyl]-5-methyl-7-(oxan-4-yl)-[1,2,4]triazolo[1,5-a]pyrimidin-2-amine], the “PDE2 (PIC50)” value was over 7.

In the case of `Cc1cc(C2CCOCC2)n2nc(NCc3ccnc(C(F)F)c3)nc2n1` [Example 52, N-{[2-(Difluoromethyl)pyridin-4-yl]methyl}-5-methyl-7-(oxan-4-yl)-[1,2,4]triazolo[1,5-a]pyrimidin-2-amine], the “PDE2 (PIC50)” value is recorded as over 7.

For `Cc1cc(CNc2nc3nc(C)cc(C4CCOCC4)n3n2)cc(C)n1` [Example 53, N-[(2,6-Dimethylpyridin-4-yl)methyl]-5-methyl-7-(oxan-4-yl)-[1,2,4]triazolo[1,5-a]pyrimidin-2-amine], the “PDE2 (PIC50)” value is recorded as over 7.

As for `Cc1cncc(CNc2nc3nc(C)cc(C4CCOCC4)n3n2)c1` [Example 54, 5-Methyl-N-[(5-methylpyridin-3-yl)methyl]-7-(oxan-4-yl)-[1,2,4]triazolo[1,5-a]pyrimidin-2-amine], the “PDE2 (PIC50)” value is over 7.

For `COc1ccc(CNc2nc3nc(C)cc(C4(F)CCOCC4)n3n2)cc1` [Example 55, 7-(4-Fluorooxan-4-yl)-N-[(4-methoxyphenyl)methyl]-5-methyl-[1,2,4]triazolo[1,5-a]pyrimidin-2-amine], the “PDE2 (PIC50)” value is listed as over 7.

With `Cc1cc(C2CCOCC2)n2nc(NCc3ccnc(C(F)(F)F)c3)nc2n1` [Example 59, 5-Methyl-7-(oxan-4-yl)-N-{[2-(trifluoromethyl)pyridin-4-yl]methyl}-[1,2,4]triazolo[1,5-a]pyrimidin-2-amine], the “PDE2 (PIC50)” value is reported as over 7.

Consider `Cc1cc(C2CCOCC2)n2nc(NCc3ccnc4ccccc34)nc2n1` [Example 60, 5-Methyl-7-(oxan-4-yl)-N-(quinolin-4-ylmethyl)-[1,2,4]triazolo[1,5-a]pyrimidin-2-amine], for which the “PDE2 (PIC50)” value was over 7.

For `Cc1cc(C2(C)CCOCC2)n2nc(NCc3cn(-c4ccccc4)nc3C)nc2n1` [Example 61, 5-Methyl-N-[(3-methyl-1-phenyl-1H-pyrazol-4-yl)methyl]-7-(4-methyloxan-4-yl)-[1,2,4]triazolo[1,5-a]pyrimidin-2-amine], the “PDE2 (PIC50)” value is over 7.

For `Cc1cc(C2(C)CCOCC2)n2nc(NCc3cnn(-c4ccccc4)c3)nc2n1` [Example 62, 5-Methyl-7-(4-methyloxan-4-yl)-N-[(1-phenyl-1H-pyrazol-4-yl)methyl]-[1,2,4]triazolo[1,5-a]pyrimidin-2-amine], the “PDE2 (PIC50)” value is reported as over 7.

For the compound `Cc1cc(C2CCOCC2)n2nc(NCc3cn(C(C)C)nc3C)nc2n1` [Example 66, 5-Methyl-N-{[3-methyl-1-(propan-2-yl)-1H-pyrazol-4-yl]methyl}-7-(oxan-4-yl)-[1,2,4]triazolo[1,5-a]pyrimidin-2-amine], the “PDE2 (PIC50)” value is reported as over 7.

For `Cc1cc(C2CCOC2)n2nc(NCc3cn(-c4ccccc4)nc3C)nc2n1` (stereo not shown) [Example 72, 5-Methyl-N-[(3-methyl-1-phenyl-1H-pyrazol-4-yl)methyl]-7-(oxolan-3-yl)-[1,2,4]triazolo[1,5-a]pyrimidin-2-amine], the “PDE2 (PIC50)” value was over 7.

For the compound `Cc1cc(C(C)C)n2nc(NCc3cn(-c4ccccc4)nc3C)nc2n1` [Example 74, 5-Methyl-N-[(3-methyl-1-phenyl-H-pyrazol-4-yl)methyl]-7-(propan-2-yl)-[1,2,4]triazolo[1,5-a]pyrimidin-2-amine], the “PDE2 (PIC50)” value is listed as over 7.

The assay is the same for the next values; noted with them: 200 nM FAM-cAMP substrate, 11-point half-log dose-response, read-out: PDE2 (PIC50).
Turning to `Cc1cc(CNc2nc3nc(C)cc(C4(C)CCOCC4)n3n2)ccn1` [Example 43, 5-Methyl-7-(4-methyloxan-4-yl)-N-[(2-methylpyridin-4-yl)methyl]-[1,2,4]triazolo[1,5-a]pyrimidin-2-amine], the IC50 fell in the range of 100 to 1000 nM.

Turning to `COc1ccc(CNc2nc3nc(C)cc(C4CCOC4)n3n2)cc1` (stereo not shown) [Example 44, N-[(4-Methoxyphenyl)methyl]-5-methyl-7-(oxolan-3-yl)-[1,2,4]triazolo[1,5-a]pyrimidin-2-amine], the IC50 fell in the range of 100 to 1000 nM.

As for `Cc1cc(C2CCOCC2)n2nc(NCc3ccc4c(c3)OC(F)(F)O4)nc2n1` [Example 45, N-[(2,2-Difluoro-2H-1,3-benzodioxol-5-yl)methyl]-5-methyl-7-(oxan-4-yl)-[1,2,4]triazolo[1,5-a]pyrimidin-2-amine], the IC50 was in the range of 100 to 1000 nM.

`Cc1cc(C2CCOCC2)n2nc(NCc3ccccc3C)nc2n1` [Example 47, 5-Methyl-N-[(2-methylphenyl)methyl]-7-(oxan-4-yl)-[1,2,4]triazolo[1,5-a]pyrimidin-2-amine]: the IC50 fell in the range of 100 to 1000 nM.

On to `Cc1cc(C2CCOCC2)n2nc(NCc3ccccc3Cl)nc2n1` [Example 48, N-[(2-Chlorophenyl)methyl]-5-methyl-7-(oxan-4-yl)-[1,2,4]triazolo[1,5-a]pyrimidin-2-amine], for which the IC50 lay within 100 to 1000 nM.

Take `Cc1cc(C2CCOCC2)n2nc(NCc3cc(F)ccc3F)nc2n1` [Example 49, N-[(2,5-Difluorophenyl)methyl]-5-methyl-7-(oxan-4-yl)-[1,2,4]triazolo[1,5-a]pyrimidin-2-amine]: the IC50 fell in the range of 100 to 1000 nM.

Regarding `Cc1cc(C2CCOCC2)n2nc(NCc3c(F)cccc3F)nc2n1` [Example 51, N-[(2,6-Difluorophenyl)methyl]-5-methyl-7-(oxan-4-yl)-[1,2,4]triazolo[1,5-a]pyrimidin-2-amine], the IC50 fell in the range of 100 to 1000 nM.

`Cc1cc(C2CCOCC2)n2nc(NCc3ccc(F)c(F)c3)nc2n1` [Example 56, N-[(3,4-Difluorophenyl)methyl]-5-methyl-7-(oxan-4-yl)-[1,2,4]triazolo[1,5-a]pyrimidin-2-amine]: the IC50 lay in the range of 100 to 1000 nM.

Turning to `Cc1cc(C2CCOCC2)n2nc(NCc3ccc(F)cc3)nc2n1` [Example 57, N-[(4-Fluorophenyl)methyl]-5-methyl-7-(oxan-4-yl)-[1,2,4]triazolo[1,5-a]pyrimidin-2-amine], the IC50 fell in the range of 100 to 1000 nM.

As for `Cc1cc(C2CCOCC2)n2nc(NCc3cccc(F)c3)nc2n1` [Example 58, N-[(3-Fluorophenyl)methyl]-5-methyl-7-(oxan-4-yl)-[1,2,4]triazolo[1,5-a]pyrimidin-2-amine], the IC50 is 100 to 1000 nM.

`Cc1cc(C2CC2)n2nc(NCc3cn(-c4ccccc4)nc3C)nc2n1` [Example 63, 7-Cyclopropyl-5-methyl-N-[(3-methyl-1-phenyl-1H-pyrazol-4-yl)methyl]-[1,2,4]triazolo[1,5-a]pyrimidin-2-amine]: the IC50 is 100 to 1000 nM.

Turning to `COc1ccc([C@@H](C)Nc2nc3nc(C)cc(C4CCOCC4)n3n2)cc1` [Example 64, N-[(1R)-1-(4-Methoxyphenyl)ethyl]-5-methyl-7-(oxan-4-yl)-[1,2,4]triazolo[1,5-a]pyrimidin-2-amine], the IC50 fell in the range of 100 to 1000 nM.

For `Cc1cc(C2CCOCC2)n2nc(NCc3cn(CC(F)F)nc3C)nc2n1` [Example 65, N-{[1-(2,2-Difluoroethyl)-3-methyl-1H-pyrazol-4-yl]methyl}-5-methyl-7-(oxan-4-yl)-[1,2,4]triazolo[1,5-a]pyrimidin-2-amine], the IC50 was 100 to 1000 nM.

Take `Cc1cc(C2CCOCC2)n2nc(NCc3ccc(F)cc3F)nc2n1` [Example 68, N-[(2,4-Difluorophenyl)methyl]-5-methyl-7-(oxan-4-yl)-[1,2,4]triazolo[1,5-a]pyrimidin-2-amine]: the IC50 fell in the range of 100 to 1000 nM.

As for `COc1ccc([C@H](C)Nc2nc3nc(C)cc(C4CCOCC4)n3n2)cc1` [Example 69, N-[(1S)-1-(4-Methoxyphenyl)ethyl]-5-methyl-7-(oxan-4-yl)-[1,2,4]triazolo[1,5-a]pyrimidin-2-amine], the IC50 lay in the range of 1000 to 10000 nM.

Turning to `Cc1cc(C2CCOCC2)n2nc(NCc3c(F)cncc3F)nc2n1` [Example 70, N-[(3,5-Difluoropyridin-4-yl)methyl]-5-methyl-7-(oxan-4-yl)-[1,2,4]triazolo[1,5-a]pyrimidin-2-amine], the IC50 was 100 to 1000 nM.

Consider `Cc1cc(C2CCC2)n2nc(NCc3cn(-c4ccccc4)nc3C)nc2n1` [Example 71, 7-Cyclobutyl-5-methyl-N-[(3-methyl-1-phenyl-1H-pyrazol-4-yl)methyl]-[1,2,4]triazolo[1,5-a]pyrimidin-2-amine], for which the IC50 is 100 to 1000 nM.

In the case of `Cc1cc(C2CCOCC2)n2nc(NCc3cc(C#N)ccc3F)nc2n1` [Example 73, 4-Fluoro-3-({[5-methyl-7-(oxan-4-yl)-[1,2,4]triazolo[1,5-a]pyrimidin-2-yl]amino}methyl)benzonitrile], the IC50 was in the range of 100 to 1000 nM.
